Test results as given in patent US4067997A, “Synergistic microbecidal composition and method” (priority 1976, dated 1978).

Assays:
Assay type in all cases: cell-based
[1] = test system: Saccharomyces cerevisiae; test: MIC on mass basis (Example V procedure)
Method: (§1) The essential procedure of Example I was followed with a series of phenolic compounds, with the exception that the test method was conducted on a mass (μg/ml) basis rather than a molecular (mol/ml) basis of the foregoing tests, since the long established phenol-coeffecient test is on a mass rather than molecular basis. Additionally, a different but closely related group of organisms were used in this test, in order to give a complete representative span on gram-negative, gram-positive and fungus organisms. Additionally, the phenolic derivatives chosen for test purposes include a number of derivatives which are presently accepted by the FDA as food-grade phenolic microbicides.
(§2) The same procedure of Example V was repeated but with combinations of mono-laurin (GML).
(§3) The procedure of Example V was repeated with combinations of glycerol mono-laurin (GML) and ethylenediamine tetraacetic acid (EDTA) as the calcium salt and in combination with BHA.

[2] = test system: Candida albicans; test: MIC on mass basis (Example V procedure)
Method: as §1, §2, §3

[3] = test system: Staphylococcus aureus; test: MIC on mass basis (Example V procedure)
Method: as §1, §2, §3

[4] = test system: Nocardia asteroides; test: MIC on mass basis (Example V procedure)
Method: as §1, §2, §3

[5] = test system: Streptococcus agalactiae; test: MIC on mass basis (Example V procedure)
Method: as §1, §2, §3

[6] = test system: Escherichia coli; test: MIC on mass basis (Example V procedure)
Method: as §1, §2, §3

[7] = test system: Pseudomonas aeruginosa; test: MIC on mass basis (Example V procedure)
Method: as §1, §2, §3

[8] = test system: nine gram-positive organisms and the yeast/fungus Candida; test: MIC, broth dilution, over all organisms (Examples I/II); details: all except streptococcus Group D; from essentially as active up to
Method: In order to establish comparative bactericidal and fungicidal results with homologous fatty acids, a series of experiments was performed with thirty straight-chain fatty acids and derivatives thereof. Eight different gram-negative and twelve different gram-positive organisms, representing a very broad spectrum of organisms, were used in these experiments including the fungus Candida (a yeast). Additionally, fatty acids were chosen to show the effects of saturation versus unsaturation, in the fatty acid claim. Standard solutions of the fatty acids and their derivatives were prepared by first dissolving the weighed compounds in 1 to 2 ml of 95% ethanol and immediately pouring this solution into 200 ml of Tripticase Soy Broth. These lipid compounds which are insoluble in water and broth precipitated into very small crystals or droplets. The tubes containing the suspension were warmed to approximately 70° C and were then placed in an ultrasonic tank for further solubilization of the lipid derivatives.
Standard solutions (or suspensions) at 1,000 μg/ml were twofold serially diluted with additional broth to a concentration of 125 μg/ml. A 4-ml amount of each dilution was then quickly, and with constant agitation, dispensed into appropriately labeled screw-capped glass tubes (16 by 125 mm). The tubes were sterilized with steam at 15 psi for 15 minutes. After sterilization, all tubes were cooled and incubated overnight at 35° C to insure sterility.
All compounds were compared on a molar (micromoles/milliliter) rather than on a mass basis. In the following lists of organisms used, those followed by a parenthetical number are registered with the American Type Culture Collection (ATCC); the remainder were isolates from Providence Hospital or Northland Laboratory.
Staphylococcus aureus, S. epidermidis, beta-hemolytic streptococci (Group A and non-group A), group D streptococcus, Bacillus subtilis (6051), Sarcina lutea (9431), Micrococcus sp., Candida albicans, Nocardia asteroids (3308), Corynebacterium sp. (10700), and pneumococcus (63001).
One drop (0.04 ± 0.01 ml) of an 18-hr broth culture containing 10^7 and 10^9 organisms/ml was added to each dilution of the test compound, as well as to a tube of plain broth which served as the positive control. After inoculation, the contents of each tube were well mixed, and the tubes were incubated at 35° C in a 5% carbon dioxide + […] atmosphere.
The MIC is defined as the lowest concentration of compound at which no […] evidence of growth was observed when turbidity of the inoculated broth dilutions was compared with control tubes. […] Only a one-tube difference between the bactericidal and bacteriostatic concentrations was normally observed.
Table 5 presents a comparison of the C10 and C12 free acids and their glyceryl derivatives, and Table 6 gives the corresponding ranges of activity.
Standard solutions (1000 μg/ml) of three fatty acids and polyglycerol esters thereof were prepared as described in Example I. Also sucrose esters were prepared by transferring the weighed compounds (0.2 gm. dissolved in 1 ml absolute methanol) into 200 ml of sterile Trypticase Soy Broth (TSB). These standard solutions (1000 μg/ml) were twofold serially diluted with additional sterile broth to a concentration of 125 μg/ml. A 3.8 aliquot of each dilution was asceptically delivered into sterile screw-capped culture tubes. All tubes were incubated overnight at 36° C to insure sterility. The microorganisms used in this example were the same as those used in Example I.
The inoculum, 0.05 ml of an 13-24 hour TSB culture (approximately 10^9 organisms/ml) was asceptically delivered into all dilutions of the compounds, mixed well, and incubated at 36° C. […]

CCCCCCCCCCCC(=O)OCC(O)CO (stereo not drawn) [GML, glycerol mono-laurin]
MIC ([1]; Table 13, Saccharomyces cerevisiae): < 1,000 μg/ml | MIC ([1]; Table 14, Saccharomyces cerevisiae): 1,000 μg/ml | MIC ([1]; Table 16, Saccharomyces cerevisiae, no unit in table): 1,000 | MIC of GML ([1]; Table 17, EDTA 0): 1,000 μg/ml | MIC of GML ([1]; Table 17, EDTA 125): 500 µg/mL | MIC of GML ([1]; Table 17, EDTA 250): 100 µg/mL | MIC of GML ([1]; Table 17, EDTA 500): 100 µg/mL | MIC of GML ([1]; Table 17, EDTA 1,000): < 10 µg/mL | MIC of GML ([1]; Table 17, EDTA 5,000): < 10 µg/mL | MIC of GML ([1]; Table 17, EDTA 10,000): < 10 µg/mL | MIC ([2]; Table 13, Candida albicans): > 1,000 μg/ml | MIC ([2]; Table 14, Candida albicans): > 1,000 μg/ml | MIC ([2]; Table 16, Candida albicans, no unit in table): > 1,000 | MIC of GML ([2]; Table 17, EDTA 0): > 10,000 μg/ml | MIC of GML ([2]; Table 17, EDTA 125): 500 µg/mL | MIC of GML ([2]; Table 17, EDTA 250): 500 µg/mL | MIC of GML ([2]; Table 17, EDTA 500): 100 µg/mL | MIC of GML ([2]; Table 17, EDTA 1,000): 100 µg/mL | MIC of GML ([2]; Table 17, EDTA 5,000): 100 µg/mL | MIC of GML ([2]; Table 17, EDTA 10,000): 100 µg/mL | MIC ([3]; Table 13, Staphylococcus aureus): 31.25 µg/mL | MIC ([3]; Table 14, Staphylococcus aureus): 31.25 µg/mL | MIC ([3]; Table 16, Staphylococcus aureus, no unit in table): 1,000 | MIC of GML ([3]; Table 17, EDTA 0): 1,000 μg/ml | MIC of GML ([3]; Table 17, EDTA 125): 1,000 μg/ml | MIC of GML ([3]; Table 17, EDTA 250): 1,000 μg/ml | MIC of GML ([3]; Table 17, EDTA 500): 500 µg/mL | MIC of GML ([3]; Table 17, EDTA 1,000): 100 µg/mL | MIC of GML ([3]; Table 17, EDTA 5,000): < 10 µg/mL | MIC of GML ([3]; Table 17, EDTA 10,000): < 10 µg/mL | MIC ([4]; Table 13, Nocardia asteroides): 15.60 µg/mL | MIC ([4]; Table 14, Nocardia asteroides): 7.80 µg/mL | MIC ([4]; Table 16, Nocardia asteroides, no unit in table): 10 | MIC of GML ([4]; Table 17, EDTA 0): < 10 µg/mL | MIC of GML ([4]; Table 17, EDTA 125): 100 µg/mL | MIC of GML ([4]; Table 17, EDTA 250): < 10 µg/mL | MIC of GML ([4]; Table 17, EDTA 500): < 10 µg/mL | MIC of GML ([4]; Table 17, EDTA 1,000): < 10 µg/mL | MIC of GML ([4]; Table 17, EDTA 5,000): < 10 µg/mL | MIC of GML ([4]; Table 17, EDTA 10,000): < 10 µg/mL | MIC ([5]; Table 13, Streptococcus agalactiae): 15.60 µg/mL | MIC ([5]; Table 14, Streptococcus agalactiae): 31.25 µg/mL | MIC ([6]; Table 13, Escherichia coli): > 1,000 μg/ml | MIC ([6]; Table 14, Escherichia coli): > 1,000 μg/ml | MIC ([6]; Table 16, Escherichia coli, no unit in table (Example 5 procedure, mass basis)): > 1,000 | MIC of GML ([6]; Table 17, EDTA 0): > 10,000 μg/ml | MIC of GML ([6]; Table 17, EDTA 125): > 10,000 μg/ml | MIC of GML ([6]; Table 17, EDTA 250): > 10,000 μg/ml | MIC of GML ([6]; Table 17, EDTA 500): > 10,000 μg/ml | MIC of GML ([6]; Table 17, EDTA 1,000): > 10,000 μg/ml | MIC of GML ([6]; Table 17, EDTA 5,000): > 10,000 μg/ml | MIC of GML ([6]; Table 17, EDTA 10,000): > 10,000 μg/ml | MIC ([7]; Table 13, Pseudomonas aeruginosa): > 1,000 μg/ml | MIC ([7]; Table 14, Pseudomonas aeruginosa): > 1,000 μg/ml | MIC ([7]; Table 16, Pseudomonas aeruginosa, no unit in table): > 1,000 | MIC of GML ([7]; Table 17, EDTA 0): > 10,000 μg/ml | MIC of GML ([7]; Table 17, EDTA 125): > 10,000 μg/ml | MIC of GML ([7]; Table 17, EDTA 250): > 10,000 μg/ml | MIC of GML ([7]; Table 17, EDTA 500): > 10,000 μg/ml | MIC of GML ([7]; Table 17, EDTA 1,000): > 10,000 μg/ml | MIC of GML ([7]; Table 17, EDTA 5,000): 100 µg/mL | MIC of GML ([7]; Table 17, EDTA 10,000): < 10 µg/mL | Activity of mono-laurin relative to mono-capric [8]: ≤ 5.5 times
